Measured values as given in US8361964B2, “Growth hormone releasing factor (GRF) analogs and uses thereof” (Theratechnologies Inc., priority 2011, dated 2013).
Where a SMILES comes first, the peptide text is derived from it.

system: Growth Hormone secretion; assay: Growth Hormone secretion in female mice after subcutaneous GRF analog; format: in vivo; conditions: female CD-1 mice; 10 μg/mouse subcutaneous; plasma 10 minutes after injection
From the text: (§1) CD-1 mice (female, weighting from 20 to 25 g) were obtained from Charles River Inc. Animals were used according to a protocol of the Animal Care Committee along with the principles of the Guide for the Care and Use of Experimental Animals of the Canadian Council on Animal Care. The animals were maintained on standard laboratory chow under a 12:12 light:dark cycle. They were kept in groups of 4 mice per cage.
At the day of the experiment, mice received a subcutaneous injection of GRF analog (10 μg/mouse dissolved in 20 mM sodium acetate (AcONa)+5% mannitol at pH 5). 10 minutes after injection, the mice were anesthezied with isolufrane. Blood samples (500 μl) were obtained by intra-cardiac puncture. Blood was placed into microtainer pre-treated with K3EDTA and immediately centrifuged at 13,000 RPM in a desktop centrifuge for 2 minutes. The plasma was collected and placed into a screwcap Eppendorf™ tube and quick frozen in liquid nitrogen. The samples were then kept at −80° C. until assayed. Determination of GH levels was performed as described below.
(§2) Rat and mouse plasma samples were vortexed carefully and centrifuged at 9,000 RPM for 2 min at 4° C. The dosage of GH levels was performed using the Rat/Mouse Growth Hormone ELISA kit from Millipore (Cat. # EZRMGH-45K). Sample supernatants were first diluted 20-fold with the GH ELISA assay buffer, and 10 μl of this dilution was added to the ELISA plate with 90 μl of GH EIA assay buffer. The remaining of the procedure was performed according to the manufacturer's instructions, and the data obtained were analyzed using GraphPad Prism™ software.
(§3) The GRF analogs described herein were tested for their ability to induce GH release in female mice and rats. […] The data are presented in Tables III (mice) and IV-V (rats).

Row | Molecule | GH levels 10 min [ng/mL]
1 | CC/C=C/CC(=O)N[C@@H](Cc1ccc(O)cc1)C(=O)N[C@@H](C)C(=O)N[C@@H](CC(=O)O)C(=O)N[C@@H](C)C(=O)N[C@H](C(=O)N[C@@H](Cc1ccccc1)C(=O)N[C@H](C(=O)N[C@@H](CC(=O)O)C(=O)N[C@@H](CO)C(=O)N[C@@H](Cc1ccc(O)cc1)C(=O)N[C@@H](CCCNC(=N)N)C(=O)N[C@@H](CCCCN)C(=O)N[C@H](C(=O)N[C@@H](CC(C)C)C(=O)N[C@@H](C)C(=O)N[C@@H](CCC(N)=O)C(=O)N[C@@H](CC(C)C)C(=O)N[C@@H](CCCCN)C(=O)N[C@@H](C)C(=O)N[C@@H](CCCNC(=N)N)C(=O)N[C@@H](CCC(N)=O)C(=O)N[C@@H](CC(=O)O)C(=O)N[C@H](C(=O)N[C@@H](CC(C)C)C(=O)N[C@@H](C)C(=O)N[C@@H](CCCNC(=N)N)C(=O)N[C@@H](C)C(=O)N[C@@H](C)C(=O)N[C@@H](CCCNC(=N)N)C(=O)N[C@@H](C)C(=O)N[C@@H](C)C(=O)N[C@@H](CCCNC(=N)N)C(N)=O)[C@@H](C)CC)C(C)C)[C@@H](C)O)[C@@H](C)CC [SEQ ID NO: 31, Trans-3-hexenoyl-YADAIFTDSYRKVLAQLKARQDILARAARAAR-NH2] (HELM PEPTIDE1{[CC/C=C/CC(=O)[*:2]].Y.A.D.A.I.F.T.D.S.Y.R.K.V.L.A.Q.L.K.A.R.Q.D.I.L.A.R.A.A.R.A.A.R.[am]}$$$$V2.0) | 563.6
2 | CC/C=C/CC(=O)N[C@@H](Cc1ccc(O)cc1)C(=O)N[C@@H](C)C(=O)N[C@@H](CC(=O)O)C(=O)N[C@@H](C)C(=O)N[C@H](C(=O)N[C@@H](Cc1ccccc1)C(=O)N[C@H](C(=O)N[C@@H](CC(=O)O)C(=O)N[C@@H](CO)C(=O)N[C@@H](Cc1ccc(O)cc1)C(=O)N[C@@H](CCCNC(=N)N)C(=O)N[C@@H](CCCCN)C(=O)N[C@H](C(=O)N[C@@H](CC(C)C)C(=O)N[C@@H](C)C(=O)N[C@@H](CCC(N)=O)C(=O)N[C@@H](CC(C)C)C(=O)N[C@@H](CCCN)C(=O)N[C@@H](C)C(=O)N[C@@H](CCCNC(=N)N)C(=O)N[C@@H](CCC(N)=O)C(=O)N[C@@H](CC(=O)O)C(=O)N[C@H](C(=O)N[C@@H](CC(C)C)C(=O)N[C@@H](CO)C(=O)N[C@H](CCCNC(=N)N)C(N)=O)[C@@H](C)CC)C(C)C)[C@@H](C)O)[C@@H](C)CC [SEQ ID NO: 24, Trans-3-hexenoyl-Y-A-D-A-I-F-T-D-S-Y-R-K-V-L-A-Q-L-O-A-R-Q-D-I-L-S-r-NH2] (HELM PEPTIDE1{[CC/C=C/CC(=O)[*:2]].Y.A.D.A.I.F.T.D.S.Y.R.K.V.L.A.Q.L.[Orn].A.R.Q.D.I.L.S.[dR].[am]}$$$$V2.0) | 332.6
3 | CC[C@H](C)[C@H](NC(=O)[C@H](C)NC(=O)[C@H](CC(=O)O)NC(=O)[C@@H](C)NC(=O)[C@@H](N)Cc1ccc(O)cc1)C(=O)N[C@@H](Cc1ccccc1)C(=O)N[C@H](C(=O)N[C@@H](CC(=O)O)C(=O)N[C@@H](CO)C(=O)N[C@@H](Cc1ccc(O)cc1)C(=O)N[C@@H](CCCNC(=N)N)C(=O)N[C@@H](CCCCN)C(=O)N[C@H](C(=O)N[C@@H](CC(C)C)C(=O)N[C@@H](C)C(=O)N[C@@H](CCC(N)=O)C(=O)N[C@@H](CC(C)C)C(=O)N[C@@H](CCCCN)C(=O)N[C@@H](C)C(=O)N[C@@H](CCCNC(=N)N)C(=O)N[C@@H](CCC(N)=O)C(=O)N[C@@H](CC(=O)O)C(=O)N[C@H](C(=O)N[C@@H](CC(C)C)C(=O)NC(C)(C)C(=O)N[C@@H](CCCNC(=N)N)C(N)=O)[C@@H](C)CC)C(C)C)[C@@H](C)O [SEQ ID NO: 22, Y-a-DAIFTDSYRKVLAQLKARQDIL-aib-R-NH2] (HELM PEPTIDE1{Y.[dA].D.A.I.F.T.D.S.Y.R.K.V.L.A.Q.L.K.A.R.Q.D.I.L.[Aib].R.[am]}$$$$V2.0) | 249.1
4 | CC[C@H](C)[C@H](NC(=O)[C@H](C)NC(=O)[C@H](CC(=O)O)NC(=O)[C@@H](C)NC(=O)[C@@H](N)Cc1ccc(O)cc1)C(=O)N[C@@H](Cc1ccccc1)C(=O)N[C@H](C(=O)N[C@@H](CC(=O)O)C(=O)N[C@@H](CO)C(=O)N[C@@H](Cc1ccc(O)cc1)C(=O)N[C@@H](CCCNC(=N)N)C(=O)N[C@@H](CCCCN)C(=O)N[C@H](C(=O)N[C@@H](CC(C)C)C(=O)N[C@@H](C)C(=O)N[C@@H](CCC(N)=O)C(=O)N[C@@H](CC(C)C)C(=O)N[C@@H](CCCCN)C(=O)N[C@@H](C)C(=O)N[C@@H](CCCNC(=N)N)C(=O)N[C@@H](CCC(N)=O)C(=O)N[C@@H](CC(=O)O)C(=O)N[C@@H](CC(C)C)C(=O)N[C@@H](CC(C)C)C(=O)N[C@@H](CO)C(=O)N[C@H](CCCNC(=N)N)C(N)=O)C(C)C)[C@@H](C)O [SEQ ID NO: 25, Y-a-DAIFTDSYRKVLAQLKARQDLLS-r-NH2] (HELM PEPTIDE1{Y.[dA].D.A.I.F.T.D.S.Y.R.K.V.L.A.Q.L.K.A.R.Q.D.L.L.S.[dR].[am]}$$$$V2.0) | 144.1
5 | CC[C@H](C)[C@H](NC(=O)[C@H](C)NC(=O)[C@H](CC(=O)O)NC(=O)[C@@H](C)NC(=O)[C@@H](N)Cc1ccc(O)cc1)C(=O)N[C@@H](Cc1ccccc1)C(=O)N[C@H](C(=O)N[C@@H](CC(=O)O)C(=O)N[C@@H](CO)C(=O)N[C@@H](Cc1ccc(O)cc1)C(=O)N[C@@H](CCCNC(=N)N)C(=O)N[C@@H](CCCCN)C(=O)N[C@H](C(=O)N[C@@H](CC(C)C)C(=O)N[C@@H](C)C(=O)N[C@@H](CCC(N)=O)C(=O)N[C@@H](CC(C)C)C(=O)N[C@@H](CCCN)C(=O)N[C@@H](C)C(=O)N[C@@H](CCCNC(=N)N)C(=O)N[C@@H](CCC(N)=O)C(=O)N[C@@H](CC(=O)O)C(=O)N[C@H](C(=O)N[C@@H](CC(C)C)C(=O)N[C@@H](CO)C(=O)N[C@H](CCCNC(=N)N)C(N)=O)[C@@H](C)CC)C(C)C)[C@@H](C)O [SEQ ID NO: 23, Y-a-D-A-I-F-T-D-S-Y-R-K-V-L-A-Q-L-O-A-R-Q-D-I-L-S-r-NH2] (HELM PEPTIDE1{Y.[dA].D.A.I.F.T.D.S.Y.R.K.V.L.A.Q.L.[Orn].A.R.Q.D.I.L.S.[dR].[am]}$$$$V2.0) | 269.9

system: Growth Hormone secretion; assay: Growth Hormone secretion in female rats after subcutaneous GRF analog; format: in vivo; conditions: female Sprague-Dawley rats; 10 μg/rat subcutaneous; plasma 0-60 minutes
From the text: as §1, with “Sprague-Dawley rats” for “CD-1 mice”, “250” for “20”, “300” for “25”, “rats” for “mice”
The animals were anesthetized with isoflurane 2.5%. A mid-section opening was made in the neck to expose the carotid artery. The carotid artery was canulated with polypropylene tubing (PE-50) to allow blood withdrawal. After surgical preparation, rats received a subcutaneous injection of GRF analog (10 μg/rat dissolved in 20 mM AcONa+5% mannitol at pH 5). For pharmacodynamics studies, blood samples (400 μL) were collected from 4 to 8 animals per group per time point. Blood samples (400 μl) were collected via the carotid catheter at 0, 10, 20, 30, 45 and 60 minutes after drug injection. Blood was placed into microtainer pre-treated with K3EDTA and immediately centrifuged at 13,000 RPM in a desktop centrifuge for 2 minutes. The plasma was collected and placed into a screw cap Eppendorf™ and quick frozen in liquid nitrogen. The samples were then kept at −80° C. until assayed. Determination of GH levels was performed as described below.
as §2, §3

Row | Molecule | Mean AUC (GH Area Under the curve, GH concentration over time) | Mean Cmax (ng/ml) of Growth Hormone secretion [ng/mL]
6 | CC/C=C/CC(=O)N[C@@H](Cc1ccc(O)cc1)C(=O)N[C@@H](C)C(=O)N[C@@H](CC(=O)O)C(=O)N[C@@H](C)C(=O)N[C@H](C(=O)N[C@@H](Cc1ccccc1)C(=O)N[C@H](C(=O)N[C@@H](CC(=O)O)C(=O)N[C@@H](CO)C(=O)N[C@@H](Cc1ccc(O)cc1)C(=O)N[C@@H](CCCNC(=N)N)C(=O)N[C@@H](CCCCN)C(=O)N[C@H](C(=O)N[C@@H](CC(C)C)C(=O)N[C@@H](C)C(=O)N[C@@H](CCC(N)=O)C(=O)N[C@@H](CC(C)C)C(=O)N[C@@H](CCCCN)C(=O)N[C@@H](C)C(=O)N[C@@H](CCCNC(=N)N)C(=O)N[C@@H](CCC(N)=O)C(=O)N[C@@H](CC(=O)O)C(=O)N[C@H](C(=O)N[C@@H](CC(C)C)C(=O)N[C@@H](C)C(=O)N[C@@H](CCCNC(=N)N)C(=O)N[C@@H](C)C(=O)N[C@@H](C)C(=O)N[C@@H](CCCNC(=N)N)C(=O)N[C@@H](C)C(=O)N[C@@H](C)C(=O)N[C@@H](CCCNC(=N)N)C(N)=O)[C@@H](C)CC)C(C)C)[C@@H](C)O)[C@@H](C)CC [SEQ ID NO: 31, Trans-3-hexenoyl-YADAIFTDSYRKVLAQLKARQDILARAARAAR-NH2] (HELM PEPTIDE1{[CC/C=C/CC(=O)[*:2]].Y.A.D.A.I.F.T.D.S.Y.R.K.V.L.A.Q.L.K.A.R.Q.D.I.L.A.R.A.A.R.A.A.R.[am]}$$$$V2.0) | 9093 | 459.9
7 | H-YLDAIFTDSYRKVLAQLKARQDILARAARAAR-NH2 [SEQ ID NO: 35, YLDAIFTDSYRKVLAQLKARQDILARAARAAR-NH2] | 9144 | 376.9
